From patent US20230149393A1, “INHIBITORS OF TRPC6 FOR TREATING RESPIRATORY CONDITIONS” (Boehringer Ingelheim International GmbH, priority 2020, published 2023)

How the values were obtained:
[1] = Phase 1 study, healthy adults; cited from earlier work
[2] = system: LPS-induced vascular leakage; assay: Reduction of LPS-induced vascular leakage in a mouse model (BALF protein); conditions: FIGS. 1A, 1B and 1C; LPS aerosol mouse model
[3] = system: virus Influenza A (strain: PR8/34/H1N1); assay: Reduction of H1N1-induced vascular leakage in a mouse model (BALF Evans blue); format: in vivo, Mice; conditions: 3 mg/kg p.o., 2 h after inoculation and once daily day 1 to day 4; day 6 after inoculation
Description: Mice were inoculated intranasally with 200 PFU (Plaque Formation Unit) of virus Influenza A (strain: PR8/34/H1N1). […] was given at 3 mg/kg p.o. 2 h after inoculation and once daily from day 1 to day 4. Evans blue was injected intravenously on day 6, 30 min prior to the euthanasia. […] The supernatant was collected for the measurement of Evans blue by spectrophotometry at the absorbance of 620 nm
At day 6 after inoculation, H1N1 induced lung vascular leakage characterized by an increase in Evans blue extravasation from the blood to the BALF.

PASMC = conditions: cited from earlier work
TRPC6 = conditions: lung tissue of IPAH patients; cited from earlier work

In the case of COc1cc(C(=O)N2CCC(c3ccc(N)nn3)CC2)ncc1Oc1ccc(F)cc1 [BI 764198], the tolerability [1] is listed as “well tolerated”.

With COc1cc(C(=O)N2CCC(c3ccc(N)nn3)CC2)ncc1Oc1ccc(F)cc1 [Compound 17, [4-(6-Amino-pyridazin-3-yl)-piperidin-1-yl]-[5-(4-fluoro-phenoxy)-4-methoxy-pyridin-2-yl]-methanone] the pulmonary vascular leakage [2] was “significantly reduces pulmonary vascular leakage” and the “reduction of BALF Evans blue” value [3] was 24%.

For COc1ccccc1Oc1c(NS(=O)(=O)c2ccc(C(C)(C)C)cc2)nc(-c2ncccn2)nc1OCCO [bosentan], the “proliferation of PASMC” value (PASMC) is listed as “decreases proliferation of PASMC” and the “expression of TRPC6” value (TRPC6) is listed as “decreases expression of TRPC6”.
